“And” between values parts separate entries of the source, which are not always exact repeats. Equal values may be shown once.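 Growth conditions: 96-well plates. Treatment: test compound, 48 hours, 5 concentrations. Analysis: linear interpolation between bracketing concentrations; unreached endpoints set to highest concentration. At the GI50, growth is halved. Definition used: TGI = concentration required for complete inhibition of growth.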 Where a SMILES comes first, the peptide text is derived from it. [ ]: non-standard residue; d: D form. The star is where a group is joined. ξ: configuration not given here. ξF = NC(Cc1ccccc1)C(=O)O; Cbz = O=C(OCc1ccccc1)*; Aib = CC(C)(N)C(=O)O
Assays:
Assay in all cases: NCI-60 cell line screen, 48 h
[1] = tested on: SF-539 CNS
[2] = tested on: HT29 colon
[3] = tested on: OVCAR-3 ovarian
[4] = tested on: DU-145 prostate
[5] = tested on: SR leukemia
[6] = tested on: HCC-2998 colon
[7] = tested on: HCT-15 colon
[8] = tested on: HCT-116 colon
[9] = tested on: OVCAR-8 ovarian
[10] = tested on: LOX IMVI melanoma

| Compound | TGI [1] | GI50 [2] | TGI [2] | GI50 [3] | TGI [3] | TGI [4] | TGI [5] | GI50 [6] | TGI [6] | TGI [7] | GI50 [8] | TGI [8] | GI50 [9] | TGI [9] | GI50 [10] | TGI [10] |
| --- | --- | --- | --- | --- | --- | --- | --- | --- | --- | --- | --- | --- | --- | --- | --- | --- |
| CCN(CC)CC[n+]1ccc2c(C)c3[nH]c4ccc(O)cc4c3c(C)c2c1 | 19 µM and 31.8 µM | 12.6 µM | 41.1 µM and > 67.5 µM | 6.62 µM | 57.9 µM and 51.9 µM | 14.2 µM | 1.74 µM | 6.94 µM | 22.6 µM and 85.4 µM | 143 µM | 4.36 µM | 26.7 µM and 30.8 µM | 1.23 µM | 44.6 µM and 13.3 µM | 6.73 µM | 44 µM and 58.3 µM |
| Nc1[nH]c(=S)nc2nc3c(c(-c4ccccc4)c12)CCCC3 | > 100 µM | – | > 100 µM | – | > 100 µM | > 100 µM | > 100 µM | – | – | > 100 µM | – | > 100 µM | – | > 100 µM | – | > 100 µM |
| CCCCCCCCCCCCCC1=C(O)C(=O)C(CC2=C(O)C(=O)C(CCCCCCCCCCCCC)=C(O)C2=O)=C(O)C1=O | > 100 µM | – | > 100 µM | – | > 100 µM | > 100 µM | > 100 µM | – | – | – | – | > 100 µM | – | > 100 µM | – | > 100 µM |
| CN(C)CCNC(=O)c1cc(Cl)cc2cc3ccccc3nc12 | 3.84 µM | – | 2.41 µM | – | 16 µM | – | – | – | 3.15 µM | 11.4 µM | – | 7 µM | – | 6.18 µM | – | 2.6 µM |
| Cc1[nH]c(=O)[nH]c(=O)c1/C=C/C(=O)NC(CO)CS(=O)CS(C)=O (stereo unspecified) | 51.5 µM | – | 515 µM | – | 31.1 µM | – | – | – | 53.8 µM | 408 µM | – | 129 µM | – | 122 µM | – | 86.9 µM |
| CCOC(=O)CCC(C(=O)OCC)n1nc2ccc(Nc3c(C)[n+]([O-])c4cc(F)c(OCC)cc4[n+]3[O-])cc2n1 (stereo unspecified) | 63.1 µM | – | > 100 µM | – | > 100 µM | > 100 µM | > 100 µM | – | > 100 µM | > 100 µM | – | > 100 µM | – | > 100 µM | – | > 100 µM |
| COc1cc(/C=C2\N=C(c3ccccc3)N(c3ccc(C(=O)c4ccccc4)cc3N3C(=O)/C(=C/c4ccc(O)c(OC)c4)N=C3c3ccccc3)C2=O)ccc1O | 17.2 µM | – | 51.5 µM | – | 8.7 µM | 48.6 µM | 33.9 µM | – | 9.69 µM | 40.3 µM | – | 23.2 µM | – | 32.5 µM | – | 37.1 µM |
| CCCCCCCCCCCCCCCCCCNc1ccn(C2OC(CO)C(OP(=O)(O)OCC(O)COP(=O)(O)OCC3OC(n4cc(F)c(NCCCCCCCCCCCCCCCCCC)nc4=O)CC3O)C2O)c(=O)n1 (stereo unspecified) | > 50 µM | – | > 50 µM | – | > 50 µM | > 50 µM | – | – | > 50 µM | > 50 µM | – | > 50 µM | – | > 50 µM | – | > 50 µM |
| CCOC(=O)CNC(=O)C(Cc1ccccc1)NC(=O)C(C)(C)NC(=O)OCc1ccccc1 (stereo unspecified) (Cbz-[Aib]-[ξF]-Gly-OEt) | – | – | > 100 µM | – | 78.2 µM | > 100 µM | > 100 µM | – | > 100 µM | > 100 µM | – | > 100 µM | – | > 100 µM | – | > 100 µM |
| CCCCN1C(=O)c2c(Br)sc(Br)c2C1=O | 69.1 µM | – | 47.1 µM | – | – | > 100 µM | 85.6 µM | – | > 100 µM | > 100 µM | – | 65.6 µM | – | > 100 µM | – | > 100 µM |
| CC(C)(C)c1ccc2c(c1)C#Cc1cc(C(C)(C)C)ccc1OCCCO2 | – | – | > 100 µM | – | > 100 µM | > 100 µM | – | – | – | > 100 µM | – | > 100 µM | – | > 100 µM | – | > 100 µM |
| OCC(O)CNc1ncnc2ccccc12 (stereo unspecified) | – | – | > 100 µM | – | > 100 µM | > 100 µM | – | – | > 100 µM | > 100 µM | – | > 100 µM | – | > 100 µM | – | > 100 µM |
| COC(=O)C1=C(C)N2CCSC2(C)C(C(=O)OC)C1c1cccc(Cl)c1 (stereo unspecified) | 24.9 µM | – | 33.4 µM | – | 34.6 µM | – | 66.7 µM | – | 40 µM | – | – | 34.9 µM | – | > 100 µM | – | – |
| O=C(CSCC(=O)N/N=C/c1ccccc1)N/N=C\c1ccccc1 | > 100 µM | – | > 100 µM | – | > 100 µM | > 100 µM | – | – | – | > 100 µM | – | > 100 µM | – | > 100 µM | – | > 100 µM |
| N#CC1=C2SCCN2C(=O)C(C#N)C12CCCCC2 (stereo unspecified) | > 100 µM | – | > 100 µM | – | > 100 µM | > 100 µM | > 100 µM | – | > 100 µM | > 100 µM | – | > 100 µM | – | > 100 µM | – | > 100 µM |
| C=C1C(=O)O[C@@H]2/C=C(\C)CC/C=C(\C)CC[C@@]12O | 3.39 µM | – | 10.9 µM | – | 6.43 µM | 4.93 µM | 10.8 µM | – | 12.7 µM | 9.27 µM | – | 6.69 µM | – | 5.18 µM | – | 5.23 µM |
| Cc1cc2c(c(O)c1-c1c(C)cc(O)c3c1C(=O)C=CC3=O)C(=O)C=CC2=O | 31.7 µM | – | – | – | 5.99 µM | 4.73 µM | 0.265 µM | – | 10.1 µM | – | – | – | – | – | – | 4.21 µM |
| O=C(Oc1c(Cl)cc(C2(c3cc(Cl)c(OC(=O)c4ccccc4)c(Cl)c3)CCCCC2)cc1Cl)c1ccccc1 | 29.2 µM | – | 30 µM | – | 27.9 µM | 36.7 µM | – | – | 22.9 µM | 24.6 µM | – | 25.9 µM | – | 34.1 µM | – | 29.1 µM |
| S=c1c2[nH]cnc2ncn1CCSC1=NC=NC2=NC=NC21 (stereo unspecified) | > 100 µM | – | > 100 µM | – | > 100 µM | > 100 µM | > 100 µM | – | > 100 µM | > 100 µM | – | > 100 µM | – | > 100 µM | – | > 100 µM |
| CNC1Cc2c[nH]c3cccc(c23)C12C=C(C)C(=O)O2 (stereo unspecified) | > 100 µM | – | > 100 µM | – | > 100 µM | > 100 µM | > 100 µM | – | > 100 µM | > 100 µM | – | > 100 µM | – | > 100 µM | – | > 100 µM |
